# Experimental data reported in US11117900B2 (Vertex Pharmaceuticals Incorporated, priority 2012, dated 2021).
# Tested on: HCT116 colorectal cancer cells
# Experiment: Cisplatin sensitization assay (96 h MTS cell viability);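 also: compound concentration needed to lower the IC50 of Cisplatin alone by a set fold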
# Format: cell-based
# Settings: Cisplatin sensitization value
# Outline: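 The MTS viability read, after 1 h with reagent, followed 96 h of co-treatment at 37° C. in 5% CO2. Both compound and cisplatin were titrated 2-fold from a 10 μM top final concentration in a complete concentration matrix on HCT116 cells. Scores +++/++/+ reflect cisplatin sensitization value ranges.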
row,SMILES,Cisplatin Sensitization Assay
1,"CC1(C)CN(C(=O)C2CCN(c3c(F)cncc3NC(=O)c3c(N)nn4cc(F)cnc34)CC2)CCN1 [I-G-27, 2-amino-N-(4-(4-(3,3-dimethylpiperazine-1-carbonyl)piperidin-1-yl)-5-fluoropyridin-3-yl)-6-fluoropyrazolo[1,5-a]pyrimidine-3-carboxamide]",++ (Compounds with a Cisplatin sensitization value >0.02 μM but <0.2 μM are marked with “++.”)
2,"CN1CCC[C@H]1C(=O)N1CCN(c2c(F)cncc2NC(=O)c2c(N)nn3cc(F)cnc23)CC1 [I-N-157, (S)-2-amino-6-fluoro-N-(5-fluoro-4-(4-(1-methylpyrrolidine-2-carbonyl)piperazin-1-yl)pyridin-3-yl)pyrazolo[1,5-a]pyrimidine-3-carboxamide]",++ (Compounds with a Cisplatin sensitization value >0.02 μM but <0.2 μM are marked with “++.”)
3,"CC(C)(O)C1CCN(c2ccncc2NC(=O)c2c(N)nn3cc(Cl)cnc23)CC1 [I-N-69, 2-amino-6-chloro-N-(4-(4-(2-hydroxypropan-2-yl)piperidin-1-yl)pyridin-3-yl)pyrazolo[1,5-a]pyrimidine-3-carboxamide]",+++ (Compounds with a Cisplatin sensitization value of <0.02 μM are marked with “+++.”)
4,"Nc1nn2cc(F)cnc2c1C(=O)Nc1cnccc1N1CCN2CCC1CC2 [I-N-18, N-(4-(1,4-diazabicyclo[3.2.2]nonan-4-yl)pyridin-3-yl)-2-amino-6-fluoropyrazolo[1,5-a]pyrimidine-3-carboxamide]",++ (Compounds with a Cisplatin sensitization value >0.02 μM but <0.2 μM are marked with “++.”)
5,"CCn1cncc1-c1ccncc1NC(=O)c1c(N)nn2cc(F)cnc12 [I-C-80, 2-amino-N-(4-(1-ethyl-1H-imidazol-5-yl)pyridin-3-yl)-6-fluoropyrazolo[1,5-a]pyrimidine-3-carboxamide]",+++ (Compounds with a Cisplatin sensitization value of <0.02 μM are marked with “+++.”)
6,"C[N+]1([O-])CCN(C(=O)C2CCN(c3c(F)cncc3NC(=O)c3c(N)nn4cc(F)cnc34)CC2)CC1 [I-G-95, 4-(1-(3-(2-amino-6-fluoropyrazolo[1,5-a]pyrimidine-3-carboxamido)-5-fluoropyridin-4-yl)piperidine-4-carbonyl)-1-methylpiperazine 1-oxide]",+++ (Compounds with a Cisplatin sensitization value of <0.02 μM are marked with “+++.”)
7,"Nc1nn2cc(F)cnc2c1C(=O)Nc1cnccc1N1CCN(CC(F)(F)F)CC1 [I-N-20, 2-amino-6-fluoro-N-(4-(4-(2,2,2-trifluoroethyl)piperazin-1-yl)pyridin-3-yl)pyrazolo[1,5-a]pyrimidine-3-carboxamide]",+++ (Compounds with a Cisplatin sensitization value of <0.02 μM are marked with “+++.”)
8,"Nc1nn2cc(F)cnc2c1C(=O)Nc1cnccc1N1CCC(C(=O)N2CCCC2)CC1 [I-G-83, 2-amino-6-fluoro-N-(4-(4-(pyrrolidine-1-carbonyl)piperidin-1-yl)pyridin-3-yl)pyrazolo[1,5-a]pyrimidine-3-carboxamide]",+++ (Compounds with a Cisplatin sensitization value of <0.02 μM are marked with “+++.”)
9,"N#CCc1cnc2c(C(=O)Nc3cnccc3N3CCNCC3)c(N)nn2c1 [I-N-89, 2-amino-6-(cyanomethyl)-N-(4-(piperazin-1-yl)pyridin-3-yl)pyrazolo[1,5-a]pyrimidine-3-carboxamide]",++ (Compounds with a Cisplatin sensitization value >0.02 μM but <0.2 μM are marked with “++.”)
10,"CN1CC2(CCN(c3ccncc3NC(=O)c3c(N)nn4cc(F)cnc34)CC2)CC1=O [I-N-236, 2-amino-6-fluoro-N-(4-(2-methyl-3-oxo-2,8-diazaspiro[4.5]decan-8-yl)pyridin-3-yl)pyrazolo[1,5-a]pyrimidine-3-carboxamide]",+++ (Compounds with a Cisplatin sensitization value of <0.02 μM are marked with “+++.”)
11,"Nc1nn2cc(Cl)cnc2c1C(=O)Nc1cnccc1OC1CNC1 [I-O-73, 2-amino-N-(4-(azetidin-3-yloxy)pyridin-3-yl)-6-chloropyrazolo[1,5-a]pyrimidine-3-carboxamide]",+ (Compounds with a Cisplatin sensitization value >0.2 μM but <5 μM are marked with “+.”)
12,"Nc1nn2cc(Cl)cnc2c1C(=O)Nc1cnccc1N1CCC(N2CCC23COC3)CC1 [I-N-109, N-(4-(4-(6-oxa-1-azaspiro[3.3]heptan-1-yl)piperidin-1-yl)pyridin-3-yl)-2-amino-6-chloropyrazolo[1,5-a]pyrimidine-3-carboxamide]",+++ (Compounds with a Cisplatin sensitization value of <0.02 μM are marked with “+++.”)
13,"Cc1ccncc1-c1ccncc1NC(=O)c1c(N)nn2cc(F)cnc12 [I-C-30, 2-amino-6-fluoro-N-(4-methyl-[3,4′-bipyridin]-3′-yl)pyrazolo[1,5-a]pyrimidine-3-carboxamide]",+++ (Compounds with a Cisplatin sensitization value of <0.02 μM are marked with “+++.”)
14,"COc1cncc(NC(=O)c2c(N)nn3cc(F)cnc23)c1-c1cccnc1 [I-C-82, 2-amino-6-fluoro-N-(5′-methoxy-[3,4′-bipyridin]-3′-yl)pyrazolo[1,5-a]pyrimidine-3-carboxamide]",+++ (Compounds with a Cisplatin sensitization value of <0.02 μM are marked with “+++.”)
15,"Nc1nn2cc(F)cnc2c1C(=O)Nc1cnccc1O[C@H]1CCCNC1 [I-O-85, (S)-2-amino-6-fluoro-N-(4-(piperidin-3-yloxy)pyridin-3-yl)pyrazolo[1,5-a]pyrimidine-3-carboxamide]",+++ (Compounds with a Cisplatin sensitization value of <0.02 μM are marked with “+++.”)
16,"Cc1nc(C)n(-c2ccncc2NC(=O)c2c(N)nn3cc(F)cnc23)n1 [I-N-218, 2-amino-N-(4-(3,5-dimethyl-1H-1,2,4-triazol-1-yl)pyridin-3-yl)-6-fluoropyrazolo[1,5-a]pyrimidine-3-carboxamide]",+ (Compounds with a Cisplatin sensitization value >0.2 μM but <5 μM are marked with “+.”)
17,"Nc1nn2cc(F)cnc2c1C(=O)Nc1cnccc1N1CCC(C(=O)N2CC3(COC3)C2)CC1 [I-G-88, N-(4-(4-(2-oxa-6-azaspiro[3.3]heptane-6-carbonyl)piperidin-1-yl)pyridin-3-yl)-2-amino-6-fluoropyrazolo[1,5-a]pyrimidine-3-carboxamide]",+++ (Compounds with a Cisplatin sensitization value of <0.02 μM are marked with “+++.”)
18,"Nc1nn2cc(Cl)cnc2c1C(=O)Nc1cnccc1N1CCC(N)CC1 [I-N-86, 2-amino-N-(4-(4-aminopiperidin-1-yl)pyridin-3-yl)-6-chloropyrazolo[1,5-a]pyrimidine-3-carboxamide]",+++ (Compounds with a Cisplatin sensitization value of <0.02 μM are marked with “+++.”)
19,"COC1CN(C2CCN(c3ccncc3NC(=O)c3c(N)nn4cc(Cl)cnc34)CC2)C1 [I-N-107, 2-amino-6-chloro-N-(4-(4-(3-methoxyazetidin-1-yl)piperidin-1-yl)pyridin-3-yl)pyrazolo[1,5-a]pyrimidine-3-carboxamide]",+++ (Compounds with a Cisplatin sensitization value of <0.02 μM are marked with “+++.”)
20,"N#CCc1cnc2c(C(=O)Nc3cnccc3OC3CNC3)c(N)nn2c1 [I-O-82, 2-amino-N-(4-(azetidin-3-yloxy)pyridin-3-yl)-6-(cyanomethyl)pyrazolo[1,5-a]pyrimidine-3-carboxamide]",++ (Compounds with a Cisplatin sensitization value >0.02 μM but <0.2 μM are marked with “++.”)
21,"CN1CCN(c2ccc(-c3ccncc3NC(=O)c3c(N)nn4cc(F)cnc34)cn2)CC1 [I-C-21, 2-amino-6-fluoro-N-(6-(4-methylpiperazin-1-yl)-[3,4′-bipyridin]-3′-yl)pyrazolo[1,5-a]pyrimidine-3-carboxamide]",+++ (Compounds with a Cisplatin sensitization value of <0.02 μM are marked with “+++.”)
22,"Nc1nn2cc(Cl)cnc2c1C(=O)Nc1cnccc1N1CCNC(C(F)(F)F)C1 (stereo not drawn) [I-N-70, 2-amino-6-chloro-N-(4-(3-(trifluoromethyl)piperazin-1-yl)pyridin-3-yl)pyrazolo[1,5-a]pyrimidine-3-carboxamide]",++ (Compounds with a Cisplatin sensitization value >0.02 μM but <0.2 μM are marked with “++.”)
23,"Nc1nn2cc(F)cnc2c1C(=O)Nc1cnccc1OC1CCS(=O)(=O)CC1 [I-O-45, 2-amino-N-(4-((1,1-dioxidotetrahydro-2H-thiopyran-4-yl)oxy)pyridin-3-yl)-6-fluoropyrazolo[1,5-a]pyrimidine-3-carboxamide]",+++ (Compounds with a Cisplatin sensitization value of <0.02 μM are marked with “+++.”)
24,"CN1CCC(C(=O)N2CCN(c3c(F)cncc3NC(=O)c3c(N)nn4cc(F)cnc34)CC2)CC1 [I-N-128, 2-amino-6-fluoro-N-(5-fluoro-4-(4-(1-methylpiperidine-4-carbonyl)piperazin-1-yl)pyridin-3-yl)pyrazolo[1,5-a]pyrimidine-3-carboxamide]",+++ (Compounds with a Cisplatin sensitization value of <0.02 μM are marked with “+++.”)
25,"CC(C)N1CCN2CCN(c3ccncc3NC(=O)c3c(N)nn4cc(F)cnc34)CC2C1=O (stereo not drawn) [I-N-245, 2-amino-6-fluoro-N-(4-(8-isopropyl-9-oxohexahydro-1H-pyrazino[1,2-a]pyrazin-2(6H)-yl)pyridin-3-yl)pyrazolo[1,5-a]pyrimidine-3-carboxamide]",++ (Compounds with a Cisplatin sensitization value >0.02 μM but <0.2 μM are marked with “++.”)
26,"CN1CC[C@H](Oc2ccncc2NC(=O)c2c(N)nn3cc(F)cnc23)C1 [I-O-1, (S)-2-amino-6-fluoro-N-(4-((1-methylpyrrolidin-3-yl)oxy)pyridin-3-yl)pyrazolo[1,5-a]pyrimidine-3-carboxamide]",+++ (Compounds with a Cisplatin sensitization value of <0.02 μM are marked with “+++.”)
27,"Nc1nn2cc(F)cnc2c1C(=O)Nc1cncc(F)c1N1CCN(C(=O)C2CNCCO2)CC1 (stereo not drawn) [I-N-172, 2-amino-6-fluoro-N-(5-fluoro-4-(4-(morpholine-2-carbonyl)piperazin-1-yl)pyridin-3-yl)pyrazolo[1,5-a]pyrimidine-3-carboxamide]",+++ (Compounds with a Cisplatin sensitization value of <0.02 μM are marked with “+++.”)
